How the values were obtained:
[1] = Molar enthalpy of transition or fusion; settings: Adiabatic calorimetry
[2] = for molar entropy: 101.33 kPa; for Triple point temperature: Adiabatic calorimetry

Cl.NC12CC3CC(CC(C3)C1)C2 [1-aminoadamantane hydrochloride]
Settings	Molar enthalpy of transition or fusion, [1] [kcal/mol]	Triple point temperature, [2] [K]
Crystal 2	0.0366	123.1
Crystal 3	0.0108	120

[2]
Settings	molar entropy [J/K/mol]
5 K, Crystal 3, Small (less than 1 g) adiabatic calorimetry	0.1924
10 K, Crystal 3, Small (less than 1 g) adiabatic calorimetry	1.564
15 K, Crystal 3, Small (less than 1 g) adiabatic calorimetry	4.477
20 K, Crystal 3, Small (less than 1 g) adiabatic calorimetry	8.48
25 K, Crystal 3, Small (less than 1 g) adiabatic calorimetry	13.09
30 K, Crystal 3, Small (less than 1 g) adiabatic calorimetry	17.99
35 K, Crystal 3, Small (less than 1 g) adiabatic calorimetry	22.99
40 K, Crystal 3, Small (less than 1 g) adiabatic calorimetry	27.96
45 K, Crystal 3, Small (less than 1 g) adiabatic calorimetry	32.87
50 K, Crystal 3, Small (less than 1 g) adiabatic calorimetry	37.68
60 K, Crystal 3, Small (less than 1 g) adiabatic calorimetry	46.99
70 K, Crystal 3, Small (less than 1 g) adiabatic calorimetry	55.88
80 K, Crystal 3, Small (less than 1 g) adiabatic calorimetry	64.42
90 K, Crystal 3, Small (less than 1 g) adiabatic calorimetry	72.68
100 K, Crystal 3, Small (less than 1 g) adiabatic calorimetry	80.74
110 K, Crystal 3, Small (less than 1 g) adiabatic calorimetry	88.67
120 K, Crystal 2, Small (less than 1 g) adiabatic calorimetry	96.9
120 K, Crystal 3, Small (less than 1 g) adiabatic calorimetry	96.53
123.1 K, Crystal 1, Small (less than 1 g) adiabatic calorimetry	100.6
123.1 K, Crystal 2, Small (less than 1 g) adiabatic calorimetry	99.33
130 K, Crystal 1, Small (less than 1 g) adiabatic calorimetry	106
140 K, Crystal 1, Small (less than 1 g) adiabatic calorimetry	113.7
150 K, Crystal 1, Small (less than 1 g) adiabatic calorimetry	121.3
160 K, Crystal 1, Small (less than 1 g) adiabatic calorimetry	128.7
170 K, Crystal 1, Small (less than 1 g) adiabatic calorimetry	136
180 K, Crystal 1, Small (less than 1 g) adiabatic calorimetry	143.3
190 K, Crystal 1, Small (less than 1 g) adiabatic calorimetry	150.5
200 K, Crystal 1, Small (less than 1 g) adiabatic calorimetry	157.7
210 K, Crystal 1, Small (less than 1 g) adiabatic calorimetry	164.8
220 K, Crystal 1, Small (less than 1 g) adiabatic calorimetry	172
230 K, Crystal 1, Small (less than 1 g) adiabatic calorimetry	179.1
240 K, Crystal 1, Small (less than 1 g) adiabatic calorimetry	186.3
250 K, Crystal 1, Small (less than 1 g) adiabatic calorimetry	193.4
260 K, Crystal 1, Small (less than 1 g) adiabatic calorimetry	200.6
270 K, Crystal 1, Small (less than 1 g) adiabatic calorimetry	207.8
280 K, Crystal 1, Small (less than 1 g) adiabatic calorimetry	215
290 K, Crystal 1, Small (less than 1 g) adiabatic calorimetry	222.2
298.15 K, Crystal 1, Small (less than 1 g) adiabatic calorimetry	228.1
300 K, Crystal 1, Small (less than 1 g) adiabatic calorimetry	229.5
310 K, Crystal 1, Small (less than 1 g) adiabatic calorimetry	236.7
320 K, Crystal 1, Small (less than 1 g) adiabatic calorimetry	244
330 K, Crystal 1, Small (less than 1 g) adiabatic calorimetry	251.3
340 K, Crystal 1, Small (less than 1 g) adiabatic calorimetry	258.6
350 K, Crystal 1, Small (less than 1 g) adiabatic calorimetry	265.9
360 K, Crystal 1, Small (less than 1 g) adiabatic calorimetry	273.3
370 K, Crystal 1, Small (less than 1 g) adiabatic calorimetry	280.6
380 K, Crystal 1, Small sample (50 mg) DSC	288
390 K, Crystal 1, Small sample (50 mg) DSC	295.4
400 K, Crystal 1, Small sample (50 mg) DSC	302.8
410 K, Crystal 1, Small sample (50 mg) DSC	310.2
420 K, Crystal 1, Small sample (50 mg) DSC	317.6
430 K, Crystal 1, Small sample (50 mg) DSC	325
440 K, Crystal 1, Small sample (50 mg) DSC	332.5
450 K, Crystal 1, Small sample (50 mg) DSC	339.9
460 K, Crystal 1, Small sample (50 mg) DSC	347.3
470 K, Crystal 1, Small sample (50 mg) DSC	354.8

Source: the NIST ThermoML archive (doi:10.1021/acs.jced.7b00107)
